Experimental data published in patent US8008488B2 (Abbott GmbH & Co. KG, priority 2003, dated 2011).
Counter-ions that a name gives are not always drawn.

Experiments:
[1] = target: T1, human dopamine D3 receptors (Homo sapiens, UniProt P35462); experiment: Dopamine D3 receptor binding, displacement of [125I]-iodosulpride; details: membranes from HEK-293 cells with stably expressed human D3 receptors, 0.1 nM [125I]-iodosulpride
T1 construct: expressed in transfected cells
Description: (§1) The substance to be tested was dissolved either in methanol/Chremophor® (BASF-AG) or in dimethyl sulfoxide and then diluted with water to the desired concentration.
(§2) Triplicate mixtures were carried out.
The incubation buffer contained 50 mM Tris, 120 mM NaCl, 5 mM KCl, 2 mM CaCl2, 2 mM MgCl2 and 0.1% bovine serum albumin, 10 μM quinolone, 0.1% ascorbic acid (prepared fresh each day). The buffer was adjusted to pH 7.4 with HCl.
(§3) Measurement and Evaluation:
(§4) After incubation at 25° C. for 60 minutes, the mixtures were filtered under vacuum through Whatman GF/B glass fiber filters using a cell harvester. The filters were transferred by a filter transfer system into scintillation vials. After addition of 4 ml of Ultima Gold® (Packard), the samples were shaken for one hour and then the radioactivity was calculated in a beta counter (Packard, Tricarb 2000 or 2200CA). The cp values were converted into dpm by means of a standard quench series with the aid of the instrument's own program.
(§5) Evaluation of the inhibition plots took place by iterative nonlinear regression analysis using the Statistical Analysis System (SAS) similar to the “LIGAND” program described by Munson and Rodbard.

[2] = target: T2, human dopamine D2L receptors (long isoform) (Homo sapiens, UniProt P14416); experiment: Dopamine D2L receptor binding, displacement of [125I]-iodospiperone; details: *Ki(D2L)/Ki(D3), HEK-293 membranes, 0.01 nM [125I]-iodospiperone
T2 construct: expressed in transfected cells
Description: as §1, §2
The incubation buffer contained 50 mM Tris, 120 mM NaCl, 5 mM KCl, 2 mM CaCl2, 2 mM MgCl2 and 0.1% bovine serum albumin. The buffer was adjusted to pH 7.4 with HCl.
as §3, §4, §5

T1 sequence (P35462 whole entry): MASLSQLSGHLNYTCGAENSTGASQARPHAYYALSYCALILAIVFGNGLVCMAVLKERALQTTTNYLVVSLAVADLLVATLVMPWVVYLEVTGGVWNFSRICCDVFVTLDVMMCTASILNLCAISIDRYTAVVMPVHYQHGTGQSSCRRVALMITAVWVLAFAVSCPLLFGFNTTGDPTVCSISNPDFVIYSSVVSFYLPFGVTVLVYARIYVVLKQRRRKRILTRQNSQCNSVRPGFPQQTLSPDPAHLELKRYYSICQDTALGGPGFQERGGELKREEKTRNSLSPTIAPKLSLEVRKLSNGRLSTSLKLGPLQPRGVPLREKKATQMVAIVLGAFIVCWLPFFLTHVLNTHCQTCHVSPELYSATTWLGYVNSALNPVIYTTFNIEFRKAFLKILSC
T2 sequence (P14416 whole entry, canonical isoform): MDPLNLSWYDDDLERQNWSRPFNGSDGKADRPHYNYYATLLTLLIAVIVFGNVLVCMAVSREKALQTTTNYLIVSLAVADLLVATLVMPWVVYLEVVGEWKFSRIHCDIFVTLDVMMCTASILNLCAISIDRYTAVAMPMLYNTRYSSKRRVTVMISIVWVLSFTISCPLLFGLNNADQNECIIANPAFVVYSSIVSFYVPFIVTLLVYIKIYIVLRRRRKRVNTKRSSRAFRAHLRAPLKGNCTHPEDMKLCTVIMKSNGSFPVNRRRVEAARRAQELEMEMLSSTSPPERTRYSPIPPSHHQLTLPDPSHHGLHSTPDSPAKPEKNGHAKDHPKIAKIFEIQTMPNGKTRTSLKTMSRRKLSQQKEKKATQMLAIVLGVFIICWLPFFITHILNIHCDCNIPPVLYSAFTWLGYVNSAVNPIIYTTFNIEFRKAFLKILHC

Row | Ki [1] [nM] | Selectivity D3 vs. D2L* [2] | Compound
1 | 1.88 | 104 | CC(C)(C)c1nc(N2CCN(CCCCn3ccc(O)nc3=O)CC2)cc(C(F)(F)F)n1 [Example 13]
2 | 5.44 | 119 | CC(C)(C)c1nc(N2CCN(CCCCn3cc(C(F)(F)F)c(=O)[nH]c3=O)CC2)cc(C(F)(F)F)n1 [Example 55, 1-{4-[4-(2-tert-Butyl-6-trifluoromethylpyrimidin-4-yl)piperazin-1-yl]butyl}-5-trifluoromethyl-1H-pyrimidine-2,4-dione]
3 | 5.78 | 62 | CCCc1cc(N2CCN(CCCCn3ccc(C(F)(F)F)nc3=O)CC2)nc(C(C)(C)C)n1 [Example 41, 1-{4-[4-(2-tert-Butyl-6-propylpyrimidin-4-yl)piperazin-1-yl]butyl}-4-trifluoromethyl-1H-pyrimidin-2-one]
4 | 4.87 | 51 | CCCc1cc(N2CCN(CCCCn3cc(C#N)c(=O)[nH]c3=O)CC2)nc(C(C)(C)C)n1 [Example 47, 1-{4-[4-(2-tert-Butyl-6-propylpyrimidin-4-yl)piperazin-1-yl]butyl}-2,4-dioxo-1,2,3,4-tetrahydropyrimidine-5-carbonitrile]
5 | 1.66 | 89 | CCc1cn(CCCCN2CCN(c3cc(C(F)(F)F)nc(C(C)(C)C)n3)CC2)c(=O)[nH]c1=O [Example 83, 4-(2-tert-Butyl-6-trifluoromethylpyrimidin-4-yl)-1-[4-(5-ethyl-2,4-dioxo-3,4-dihydro-2H-pyrimidin-1-yl)butyl]piperazine 1-fumarate]
6 | 2.57 | 57 | Cc1cn(CC(C)CCN2CCN(c3cc(C(F)(F)F)nc(C(C)(C)C)n3)CC2)c(=O)[nH]c1=O (single isomer, unassigned; (-)) [Example 64, (−)-1-{4-[4-(2-tert-Butyl-6-trifluoromethylpyrimidin-4-yl)piperazin-1-yl]-2-methylbutyl}-5-methyl-1H-pyrimidine-2,4-dione]
7 | 0.71 | 134 | Cc1cn(CCCCN2CCN(c3cc(C4CC4)nc(C(C)(C)C)n3)CC2)c(=O)nc1O [Example 17, 1-{4-[4-(2-tert-Butyl-6-cyclopropylpyrimidin-4-yl)piperazin-1-yl]butyl}-4-hydroxy-5-methylpyrimidin-2(1H)-one]
8 | 2.4 | 55 | Cc1cccc(N2CCN(CCCCn3cc(C)c(=O)[nH]c3=O)CC2)c1C [Example 128, 1-{4-[4-(2,3-Dimethylphenyl)piperazin-1-yl]butyl}-5-methyl-1H-pyrimidine-2,4-dione]
9 | 3.44 | 63 | Cc1cn(CCCCN2CCN(c3cc(C(F)(F)F)nc(C(C)(C)C)n3)CC2)c(=O)nc1N(C)C.Cl [Example 12, 1-[2-tert-Butyl-6-(trifluoromethyl)pyrimidin-4-yl]-4-{4-[4-(dimethylamino)-5-methyl-2-oxopyrimidin-1 (2H)-yl]butyl}piperazin-4-ium chloride]
10 | 0.54 | 86 | CCCc1cc(N2CCN(CCCCn3ccc(-c4ccccc4)nc3=O)CC2)nc(C(C)(C)C)n1 [Example 49, 1-{4-[4-(2-tert-Butyl-6-propylpyrimidin-4-yl)piperazin-1-yl]butyl}-4-phenyl-1H-pyrimidin-2-one]
11 | 1.52 | 53 | CCCc1cc(N2CCN(CCCCn3ccc(C4CCC4)nc3=O)CC2)nc(C(C)(C)C)n1 [Example 74, 1-{4-[4-(2-tert-Butyl-6-propylpyrimidin-4-yl)piperazin-1-yl]butyl}-4-cyclobutyl-1H-pyrimidin-2-one]
12 | 2.99 | 201 | CC(C)(C)c1nc(N2CCN(CCCCn3cc(F)c(=O)[nH]c3=O)CC2)cc(C(F)(F)F)n1.Cl [Example 16, 1-[2-tert-Butyl-6-(trifluoromethyl)pyrimidin-4-yl]-4-[4-(5-fluoro-2,4-dioxo-3,4-dihydro-pyrimidin-1 (2H)-yl)butyl]piperazin-4-ium chloride]
13 | 1.75 | 97 | CCCc1cc(N2CCN(CCCCn3cc(C)c(O)nc3=O)CC2)nc(C(C)(C)C)n1 [Example 10, 1-{4-[4-(2-tert-Butyl-6-propylpyrimidin-4-yl)piperazin-1-yl]butyl}-4-hydroxy-5-methylpyrimidin-2(1H)-one]
14 | 2.12 | 67 | Cc1cn(CCCCN2CCN(c3cc(C(C)C)nc(C(C)(C)C)n3)CC2)c(=O)[nH]c1=O.Cl [Example 40, 4-(2-tert-Butyl-6-isopropylpyrimidin-4-yl)-1-[4-(5-methyl-2,4-dioxo-3,4-dihydro-2H-pyrimidin-1-yl)-butyl]piperazin-1-ium chloride]
15 | 2.3 | 80 | CCCc1cc(N2CCN(CCCCn3ccc(-c4ccc(C)cc4)nc3=O)CC2)nc(C(C)(C)C)n1 [Example 75, 4-(2-tert-Butyl-6-propylpyrimidin-4-yl)-1-[4-(2-oxo-4-(p-tolyl)-2H-pyrimidin-1-yl)butyl]piperazine 1-fumarate]
16 | 1.5 | 45 | Cc1cn(CCCCN2CCN(c3ccccc3Cl)CC2)c(=O)[nH]c1=O [Example 127, 1-{4-[4-(2-Chlorophenyl)piperazin-1-yl]butyl}-5-methyl-1H-pyrimidine-2,4-dione]
17 | 1.16 | 77 | Cc1cn(CCCCN2CCN(c3cc(C4CCC4)nc(C(C)(C)C)n3)CC2)c(=O)nc1O [Example 22, 1-{4-[4-(2-tert-Butyl-6-cyclobutylpyrimidin-4-yl)piperazin-1-yl]butyl}-4-hydroxy-5-methylpyrimidin-2(1H)-one]
18 | 0.97 | 31 | CCCc1cc(N2CCN(CCCCn3ccc(-c4cccs4)nc3=O)CC2)nc(C(C)(C)C)n1 [Example 87, 1-{4-[4-(2-tert-Butyl-6-propylpyrimidin-4-yl)piperazin-1-yl]butyl}-4-thiophen-2-yl-1H-pyrimidin-2-one]
19 | 4.28 | 36 | CC(=O)O.CC(C)(C)c1nc(N2CCN(CCCCn3ccc(C4CC4)nc3=O)CC2)cc(C(F)(F)F)n1 [Example 94, 4-(2-tert-Butyl-6-trifluoromethylpyrimidin-4-yl)-1-[4-(4-cyclopropyl-2-oxo-2H-pyrimidin-1-yl)butyl]piperazin-1-ium acetate]
20 | 0.74 | 53 | Cc1cn(CCCCN2CCN(c3cc(C(C)(C)C)nc(C(C)(C)C)n3)CC2)c(=O)nc1O [Example 9, 1-{4-[4-(2,6-ditert-Butylpyrimidin-4-yl)piperazin-1-yl]butyl}-4-hydroxy-5-methylpyrimidin-2(1H)-one]
21 | 2.32 | 56 | CCCc1cc(N2CCN(CCCCn3cc(F)c(=O)[nH]c3=O)CC2)nc(C(C)(C)C)n1 [Example 53, 1-{4-[4-(2-tert-Butyl-6-propylpyrimidin-4-yl)piperazin-1-yl]butyl}-5-fluoro-1H-pyrimidine-2,4-dione]
22 | 1.8 | 54 | 1-{4-[4-(2-tert-Butyl-6-propylpyrimidin-4-yl)piperazin-1-yl]butyl}-4-methyl-1H-pyrimidin-2-one [Example 69]
23 | 13.1 | 55 | COc1cc(OC)cc(N2CCN(CCCCn3cc(C)c(=O)[nH]c3=O)CC2)c1 [Example 134, 1-{4-[4-(3,5-Dimethoxyphenyl)piperazin-1-yl]butyl}-5-methyl-1H-pyrimidine-2,4-dione]
24 | 6.09 | 66 | Cc1ccn(CCCCN2CCN(c3cc(C(C)C)nc(C(C)(C)C)n3)CC2)c(=O)n1.Cl [Example 39, 4-(2-tert-Butyl-6-isopropylpyrimidin-4-yl)-1-[4-(4-methyl-2-oxopyrimidin-1 (2H)-yl)butyl]piperazin-1-ium chloride]

Row | Compound | Ki [1] [nM] | Selectivity D3 vs. D2L* [2]
25 | CCc1ccn(CCCCN2CCN(c3cc(C(F)(F)F)nc(C(C)(C)C)n3)CC2)c(=O)n1 [Example 95, 4-(2-tert-Butyl-6-trifluoromethylpyrimidin-4-yl)-1-[4-(4-ethyl-2-oxo-2H-pyrimidin-1-yl)butyl]piperazin-1-ium fumarate] | 6.53 | 45
26 | CC(C)(C)c1nc(N2CCN(CCCCn3ccc(-c4ccsc4)nc3=O)CC2)cc(C(F)(F)F)n1 [Example 92, 4-(2-tert-Butyl-6-trifluoromethylpyrimidin-4-yl)-1-[4-(2-oxo-4-thiophen-3-yl-2H-pyrimidin-1-yl)butyl]piperazin-1-ium fumarate] | 4.56 | 31
27 | CCOc1ccn(CCCCN2CCN(c3cc(C(F)(F)F)nc(C(C)(C)C)n3)CC2)c(=O)n1 [Example 85, 4-(2-tert-Butyl-6-trifluoromethylpyrimidin-4-yl)-1-[4-(4-ethoxy-2-oxo-2H-pyrimidin-1-yl)butyl]piperazin-1-ium fumarate] | 7.36 | 35
28 | CCCc1cc(N2CCN(CCCCn3ccc(-c4ccccc4C)nc3=O)CC2)nc(C(C)(C)C)n1 [Example 57, 4-(2-tert-Butyl-6-propylpyrimidin-4-yl)-1-[4-(2-oxo-4-(o-tolyl)-2H-pyrimidin-1-yl)butyl]-piperazin-1-ium fumarate] | 0.96 | 111
